Reference: the supplement of paper PMC8671470

Key:
Conditions in all cases: 72 h
[1] = system: myeloid leukemia patient primary cells Pat.9; test: area under dose-response curve (viability, 1 nM-10 uM) (fraction (0-1)); higher = more sensitive
Method: (§1)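 AUC (0–1, higher = more sensitive) of the 5-point dose–response (1 nM–10 µM, 72 h, CellTiter-Glo) in primary AML/CML patient mononuclear cells. 0.030103 is the floor for inactive compounds.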

[2] = system: myeloid leukemia patient primary cells Pat.8; test: as above
Method: as §1

[3] = system: myeloid leukemia patient primary cells Pat.3; test: as above
Method: as §1

[4] = system: myeloid leukemia patient primary cells Pat.11; test: as above
Method: as §1

[5] = system: myeloid leukemia patient primary cells Pat.2; test: as above
Method: as §1

[6] = system: myeloid leukemia patient primary cells Pat.4; test: as above
Method: as §1

[7] = system: myeloid leukemia patient primary cells Pat.7; test: as above
Method: as §1

[8] = system: myeloid leukemia patient primary cells Pat.1; test: as above
Method: as §1

[9] = system: myeloid leukemia patient primary cells Pat.6; test: as above
Method: as §1

[10] = system: myeloid leukemia patient primary cells Pat.14; test: as above
Method: as §1

[11] = system: myeloid leukemia patient primary cells Pat.12; test: as above
Method: as §1

[12] = system: myeloid leukemia patient primary cells Pat.15; test: as above
Method: as §1

[13] = system: myeloid leukemia patient primary cells Pat.5; test: as above
Method: as §1

[14] = system: myeloid leukemia patient primary cells Pat.13; test: as above
Method: as §1

[15] = system: myeloid leukemia patient primary cells Pat.10; test: as above
Method: as §1

[16] = system: myeloid leukemia patient primary cells Pat.9; test: cell viability (% survival relative to DMSO control); higher = less cytotoxic
How it was run: (§2)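 Where an area under the curve appears, it was computed with the drc and PharmacoGx R packages from log-logistic fits. Those fits used four parameters. The underlying viability data came from CellTiter-Glo after 72 h, normalised to DMSO and 10 μM proteasome-inhibitor wells, with thawed, Ficoll-purified AML or CML patient mononuclear cells at 10,000 cells/well in RPMI 1640 with 10% FBS on 384-well plates pre-printed with 70 compounds at five tenfold concentrations (1–10,000 nM) in duplicate.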

[17] = system: myeloid leukemia patient primary cells Pat.11; test: as above
How it was run: as §2

[18] = system: myeloid leukemia patient primary cells Pat.2; test: as above
How it was run: as §2

[19] = system: myeloid leukemia patient primary cells Pat.1; test: as above
How it was run: as §2

[20] = system: myeloid leukemia patient primary cells Pat.5; test: as above
How it was run: as §2

[21] = system: myeloid leukemia patient primary cells Pat.13; test: as above
How it was run: as §2

HL-60 [22] = test: cell viability (% survival relative to DMSO control); higher = less cytotoxic
How it was run: (§3)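 In 384-well plates, the full library was rescreened in duplicate on HL-60 cells in RPMI 1640 with 10% FBS, at 1–10,000 nM in five tenfold concentrations, for 72 h at 37 °C, 5% CO2. Each run also held DMSO or 100 nM of one of three metabolic inhibitors. Viability was measured by CellTiter-Glo and normalised to DMSO wells and to wells with proteasome inhibitor, present at 10 μM. Any area under the curve comes from four-parameter log-logistic fitting with drc and PharmacoGx.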

HL-60 [23] = test: area under dose-response curve (viability, 1 nM-10 uM) (fraction (0-1)); higher = more sensitive
How it was run: as §3

O=C(/C=C/c1cccnc1)NCCCCC1CCN(C(=O)c2ccccc2)CC1 [Daporinad]
Conditions	area under dose-response curve
[1]	0.995
[2]	0.823
[3]	0.995
[4]	0.849
[5]	0.754
[6]	0.947
[7]	0.995
[8]	0.616
[9]	0.609
[10]	0.977
[11]	0.772
[12]	0.792
[13]	0.995
[14]	0.754
[15]	0.956

Conditions	area under dose-response curve, co-treatment: AZD3965 100 nM	area under dose-response curve, co-treatment: DMSO vehicle	area under dose-response curve, co-treatment: GSK2194069 100 nM	area under dose-response curve, co-treatment: pictilisib 100 nM	cell viability, 1 nM [%]	cell viability, 10 nM [%]	cell viability, 100 nM [%]	cell viability, 1000 nM [%]	cell viability, 10000 nM [%]
HL-60 [23]	0.825	0.78	0.79	0.75	–	–	–	–	–
[16]	–	–	–	–	0.773	< 0	0.492	0.773	0.773
[17]	–	–	–	–	94.7	10.9	1.05	2.36	0.862
[18]	–	–	–	–	91.1	30.5	11.7	9.71	6.63
[19]	–	–	–	–	98.2	64.2	20.9	16.9	11
[20]	–	–	–	–	0.265	< 0	9.08	< 0	< 0
[21]	–	–	–	–	95	34.4	9.16	3.22	7.15

cell viability [%], HL-60 [22]
Conditions	0.001 µM	0.01 µM	0.1 µM	1 µM	10 µM
co-treatment: AZD3965 100 nM	101	17.8	1.54	0.351	0.166
co-treatment: DMSO vehicle	93.6	37.7	3.2	0.816	0.766
co-treatment: GSK2194069 100 nM	86.2	31.1	2.41	0.71	1.09
co-treatment: pictilisib 100 nM	89.7	42	2.3	0.651	2.01
